# Laboratory results: patent publication US20250204515A1, “Heparanase Inhibition for Graft Protection” (University of Pittsburgh - Of the Commonwealth System of …, priority 2022, published 2025)
# Entries after “also recorded” stand apart in the source; their conditions may differ.
# Assays:
# heparanase = target: T1, heparanase (Rattus norvegicus, UniProt Q71RP1); experiment: Heparanase activity assay in rat lung tissue after 1 h warm ischemia; assay type: in vivo; conditions: rat donors given heparin 300 IU or NAH 300 μg i.v. 5 min before 1 h warm ischemia; vs untreated control
# T1 construct: isolated lung tissue lysate was applied to biotinylated heparan sulfate-coated wells; from tissue; host or cells: rat (Lewis) lung tissue lysate
# T1 sequence (Q71RP1 29-536): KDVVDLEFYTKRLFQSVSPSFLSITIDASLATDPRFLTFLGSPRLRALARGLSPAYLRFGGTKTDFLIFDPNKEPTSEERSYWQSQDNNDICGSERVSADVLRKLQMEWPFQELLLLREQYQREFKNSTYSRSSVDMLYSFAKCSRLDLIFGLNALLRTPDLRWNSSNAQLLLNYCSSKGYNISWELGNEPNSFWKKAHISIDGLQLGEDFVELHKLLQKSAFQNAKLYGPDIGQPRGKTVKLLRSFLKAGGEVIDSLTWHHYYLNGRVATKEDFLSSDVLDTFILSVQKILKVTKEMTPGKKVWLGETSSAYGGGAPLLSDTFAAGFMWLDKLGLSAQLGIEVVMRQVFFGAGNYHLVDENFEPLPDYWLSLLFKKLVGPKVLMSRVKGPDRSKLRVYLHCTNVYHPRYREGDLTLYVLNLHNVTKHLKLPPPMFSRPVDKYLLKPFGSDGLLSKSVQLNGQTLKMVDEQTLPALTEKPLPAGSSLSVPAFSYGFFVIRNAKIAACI
# Method: Models of lungs with damaged or preserved eGC and rat orthotopic left lung transplantation. Rats were sedated with 4% isoflurane via inhalation for tracheostomy and then placed on a ventilator. They received 5% isoflurane with 100% O2 via inhalation through the ventilator for 15 min to induce a deep state of anesthesia that causes arrest of spontaneous breathing. The rats were disconnected from the ventilator 5 min after intravenous administration of heparin (300 IU), a heparin derivative without anti-coagulant properties (300 μg; N-acetyl heparin (NAH) (Millipore Sigma, Burlington, MA)), or saline (300 μl, control) through the jugular vein. Cardiac activity and blood oxygen saturation were monitored after disconnection from ventilator until cardiac arrest. One hour after induction of ischemia, a median thoracotomy was performed, and blood was flushed from the lungs with cold, low potassium dextran solution (PERFADEX; XVIVO Perfusion AB) through the pulmonary artery. […]
# Heparanase activity assay. Heparanase activity was measured using a heparanase assay kit (AMS Bio-technology (Europe) Ltd., Abingdon, UK) to quantitate heparan sulfate degradation according to the manufacturer's instructions. […] After incubation and washing, the remaining heparan sulfate was detected using a biotin-streptavidin-HRP system.
# rat lungs = experiment: Ex vivo lung perfusion (EVLP) of donor-pretreated rat lungs; assay type: in vivo; conditions: donor pre-treatment; for pulmonary vascular resistance (PVR) during EVLP: 3 h normothermic EVLP; for syndecan-1 concentration in EVLP perfusate: during EVLP, vs increasing levels in control; for Evans blue dye (EBD) penetration into lung parenchyma: last 30 min of EVLP, vs control
# Method: Ex vivo lung perfusion in rats. EVLP was performed using a commercially available rodent EVLP system (IPL-2 Isolated Perfused Rat or Guinea Pig Lung System; Harvard Apparatus, Holliston, MA). After procurement, the lungs were kept under cold ischemia for 1 h, then placed on the EVLP system, ventilated with air warmed to 37′, and perfused with 100 ml STEEN solution (XVIVO Perfusion AB) that was deoxygenated with 6% O2, 8% CO2 and balanced N2 and supplemented with 50 mg of methylprednisolone (Solu-Medrol; Pfizer, Inc.) and 50 mg of cephalosporin (Cefazolin; West-Ward Pharmaceuticals Corp., Eatontown, NJ). […] Pulmonary artery pressure, peak airway pressure, and airway flow were monitored continuously, and lung compliance and PVR were calculated every hour.
# Assessment of endothelial barrier function. After 3 h of EVLP, 6 mg of Evans blue dye (EBD, Millipore Sigma) was administered into the perfusate to assess vascular endothelial permeability. After 30 min of perfusion, the lung vascular bed was rinsed with 20 ml of PBS and pieces of lungs were incubated overnight in formamide (Millipore Sigma) at 60° C. Absorbance of the extractant was measured at 620 nm to quantitate the amount of EBD that had permeabilized into the tissue and was normalized to dry-tissue weight.
# (§1) Determination of glycocalyx components in rat lung grafts. For rat lung tissue, syndecan-1 released into the perfusate during EVLP was measured with a rat-specific ELISA (Immunotag Rat SDC1 (Syndecan-1) ELISA, G-Biosciences, St. Louis, MO). Glycocalyx glycosaminoglycans (GAGs) were quantitated using the 1,9-dimethylmethylene blue (DMMB, Millipore Sigma) method with modifications. A 1 L solution of DMMB (pH˜3.0) was prepared by dissolving 16 mg DMMB in distilled H2O containing 3.04 g/A glycine, 1.6 g/A NaCl and 95 ml 0.1 M acetic acid. Briefly, 1 ml DMMB solution was added to 20 μl lung tissue lysate then incubated at room temperature for 1 h on a tube rotator. The tubes were then centrifuged at 14,000 rpm for 15 min at 4° C. Supernatants were carefully decanted, 200 μL sodium lauryl sulfate buffer (2.08 mM) was added to each pellet, and the tubes were vortexed until GAG-DMMB pellets were no longer visible. GAG content in each sample was measured spectrophotometrically at 656 nm.
# [1] = tested on: syndecan-1, glycosaminoglycans (GAGs); experiment: Glycocalyx components in lung grafts 2 h after transplantation (western blot, DMMB); assay type: in vivo, rat; conditions: vs control; for GAGs remaining in the lung tissue: DMMB assay, 2 h after transplant; for syndecan-1 protein expression in the plasma membrane: western blot, 2 h after transplantation
# Method: Western blotting. Whole cell lysate was isolated with 2% SDS buffer (2% SDS, 50 mM Tris-HCl pH 6.8, 10% glycerol) supplemented with protease inhibitors (Sigma-Aldrich). Membrane protein fractions were obtained with the Mem-PER Plus Membrane Protein Extraction Kit (Thermo Scientific) following manufacturer's instructions. Proteins were resolved on 10% SDS-PAGE followed by transfer to 0.2 μm nitrocellulose membranes (Bio-Rad Laboratories, Hercules, CA, USA). Membranes were blocked with 5% non-fat milk at room temperature for 2 h and then incubated with the following primary antibodies at 4° C. overnight: anti-syndecan-1 (1:1000; Santa Cruz Biotechnology, Inc., Dallas, Tx, USA), anti-heparanase-1 (1:1000; Boster Biological, Pleasanton, CA, USA), anti-VE-Cadherin (1:1000; Abcam), anti-HSP90 (1:1000; Abcam) and anti-@-actin (1:50,000; Sigma-Aldrich). Membranes were then incubated with either anti-mouse (1:5000) or anti-rabbit (1:3000) horse-radish peroxidase (HRP)-conjugated polyclonal secondary antibody (Abcam, Cambridge, MA, USA), or IRDye 800CW anti-rabbit IgG or 680CW anti-mice secondary antibody (LI-COR Biosciences, Lincoln, NE, USA) at room temperature for 2 h. Proteins were visualized using an enhanced chemiluminescence kit (Abcam), and protein bands were imaged and analyzed using Image Lab software (Version 6.0; Bio-Rad Laboratories, Inc.) or Odyssey 9120 Infrared Imaging System (LI-COR Biosciences).
# as §1
Substance,heparanase activity in lung tissue (heparanase),pulmonary vascular resistance (PVR) during EVLP (rat lungs),syndecan-1 concentration in EVLP perfusate (rat lungs),Evans blue dye (EBD) penetration into lung parenchyma (rat lungs),GAGs remaining in the lung tissue [1],syndecan-1 protein expression in the plasma membrane [1]
N-acetyl heparin [NAH],inhibited,little to no increase,maintained at a constant level,significantly less EBD penetration,significantly more GAGs remained,markedly higher
heparin,decreased; also recorded: inhibited,little to no increase,maintained at a constant level,significantly less EBD penetration,significantly more GAGs remained,markedly higher
